Where “and” joins values, the source holds several entries; their conditions need not be identical. Equal values may be shown once. Read-outs that look alike come from different tables or passages of the source.
Experiments:
[1] = system: glutamate-induced 45Ca2+ uptake into synaptosomes of rat brain cortex; assay: Effect on glutamate-induced 45Ca2+ uptake into synaptosomes of rat brain cortex; assay type: biochemical, Wistar rats; settings: for Percentage 45Ca2+ of Control (Control – 100%): 200 μM glutamate, 5 min, 37 °C; for overall inhibiting activity on calcium ion uptake, in words: whole concentration range 0.01–100 μM
[2] = assay type: physicochemical

SMILES: COc1ccc2c(c1)c1c(n2CCc2n[nH]c(=S)n2C)CCN(C)C1 [III, 5-[2-(8-Methoxy-2-methyl-1,2,3,4-tetrahydropyrido[4,3-b]indol-5-yl)ethyl]-4-methyl-2,4-dihydro[1,2,4]triazole-3-thione]
- Percentage 45Ca2+ of Control (Control – 100%) ([1]; compound 0.01 μM): 86.7 ± 4.0%
- Percentage 45Ca2+ of Control (Control – 100%) ([1]; compound 0.1 μM): 57.5 ± 8.3%
- Percentage 45Ca2+ of Control (Control – 100%) ([1]; compound 0.5 μM): 83.0 ± 7.9%
- Percentage 45Ca2+ of Control (Control – 100%) ([1]; compound 1 μM): 83.4 ± 12.7%
- Percentage 45Ca2+ of Control (Control – 100%) ([1]; compound 5 μM): 86.6 ± 4.5%
- Percentage 45Ca2+ of Control (Control – 100%) ([1]; compound 10 μM): 85.8 ± 15.2%
- Percentage 45Ca2+ of Control (Control – 100%) ([1]; compound 50 μM): 93.1 ± 12.8%
- Percentage 45Ca2+ of Control (Control – 100%) ([1]; compound 100 μM): 96.1 ± 13.2%
- maximal effect on calcium ion uptake (inhibiting ability) ([1]; concentration of 0.1 μM): 42.5%
- inhibition of glutamate-induced calcium ion uptake ([1]; concentration of 1 μM): ~17%
- overall inhibiting activity on calcium ion uptake, in words [1]: highest inhibiting activity within a wide concentration range (0.01–10 μM)
- mole fraction solubility (x) ([2]; 1-octanol, 293.15 K): 0.71 x · 10^4
- A, parameter of the correlation equation lnx=A-B/T ([2]; 1-octanol, 293.15–313.15 K): 7.10 ± 0.15
- B, parameter of the correlation equation lnx=A-B/T ([2]; 1-octanol, 293.15–313.15 K): 4876 ± 47
- mole fraction solubility (x) ([2]; 1-octanol, 298.15 K): 0.93 x · 10^4
- ΔGsol0, standard molar dissolution Gibbs energy ([2]; 1-octanol, 298.15 K): 23.0 kJ/mol
- ΔHsol0, standard molar dissolution enthalpy ([2]; 1-octanol, 298.15 K): 40.5 kJ/mol
- ΔSsol0, standard molar dissolution entropy ([2]; 1-octanol, 298.15 K): 58.7 J/mol⋅K
- mole fraction solubility (x) ([2]; 1-octanol, 303.15 K): 1.22 x · 10^4
- mole fraction solubility (x) ([2]; 1-octanol, 308.15 K): 1.61 x · 10^4
- mole fraction solubility (x) ([2]; 1-octanol, 313.15 K): 2.05 x · 10^4
- mole fraction solubility (x) ([2]; Buffer pH 7.4, 293.15 K): 5.57 x · 10^6
- A, parameter of the correlation equation lnx=A-B/T ([2]; Buffer pH 7.4, 293.15–313.15 K): −2.82 ± 0.09
- B, parameter of the correlation equation lnx=A-B/T ([2]; Buffer pH 7.4, 293.15–313.15 K): 2719 ± 29
- mole fraction solubility (x) ([2]; Buffer pH 7.4, 298.15 K): 6.55 x · 10^6
- ΔGsol0, standard molar dissolution Gibbs energy ([2]; Buffer pH 7.4, 298.15 K): 29.6 kJ/mol
- ΔHsol0, standard molar dissolution enthalpy ([2]; Buffer pH 7.4, 298.15 K): 22.6 kJ/mol
- ΔSsol0, standard molar dissolution entropy ([2]; Buffer pH 7.4, 298.15 K): –23.4 J/mol⋅K
- mole fraction solubility (x) ([2]; Buffer pH 7.4, 303.15 K): 7.53 x · 10^6
- mole fraction solubility (x) ([2]; Buffer pH 7.4, 308.15 K): 8.77 x · 10^6
- mole fraction solubility (x) ([2]; Buffer pH 7.4, 313.15 K): 10.09 x · 10^6
- mole fraction solubility (x) ([2]; Hexane, 293.15 K): 3.30 x · 10^5
- A, parameter of the correlation equation lnx=A-B/T ([2]; Hexane, 293.15–313.15 K): −2.93 ± 0.14
- B, parameter of the correlation equation lnx=A-B/T ([2]; Hexane, 293.15–313.15 K): 2165 ± 43
- mole fraction solubility (x) ([2]; Hexane, 298.15 K): 3.71 x · 10^5
- ΔGsol0, standard molar dissolution Gibbs energy ([2]; Hexane, 298.15 K): 25.3 kJ/mol
- ΔHsol0, standard molar dissolution enthalpy ([2]; Hexane, 298.15 K): 18.0 kJ/mol
- ΔSsol0, standard molar dissolution entropy ([2]; Hexane, 298.15 K): -24.5 J/mol⋅K
- mole fraction solubility (x) ([2]; Hexane, 303.15 K): 4.18 x · 10^5
- mole fraction solubility (x) ([2]; Hexane, 308.15 K): 4.68 x · 10^5
- mole fraction solubility (x) ([2]; Hexane, 313.15 K): 5.31 x · 10^5

SMILES: Cc1ccc2c(c1)c1c(n2CCc2n[nH]c(=S)n2C)CCN(C)C1 [Compound II, 5-[2-(2,8-Dimethyl-1,2,3,4-tetrahydropyrido[4,3-b]indol-5-yl)ethyl]-4-methyl-2,4-dihydro [1,2,4] triazole-3-thione]
- Percentage 45Ca2+ of Control (Control – 100%) ([1]; compound 0.01 μM): 84.7 ± 1.2%
- Percentage 45Ca2+ of Control (Control – 100%) ([1]; compound 0.1 μM): 85.5 ± 3.9%
- Percentage 45Ca2+ of Control (Control – 100%) ([1]; compound 0.5 μM): 102.6 ± 3.6%
- Percentage 45Ca2+ of Control (Control – 100%) ([1]; compound 1 μM): 93.6 ± 3.6%
- Percentage 45Ca2+ of Control (Control – 100%) ([1]; compound 5 μM): 113.1 ± 7.6%
- Percentage 45Ca2+ of Control (Control – 100%) ([1]; compound 10 μM): 109.7 ± 7.5%
- Percentage 45Ca2+ of Control (Control – 100%) ([1]; compound 50 μM): 118.6 ± 2.7%
- Percentage 45Ca2+ of Control (Control – 100%) ([1]; compound 100 μM): 127.1 ± 17.1%
- inhibition of glutamate-induced uptake of calcium ions ([1]; concentration of 0.01–0.1 μM): ~15%
- overall inhibiting activity on calcium ion uptake, in words [1]: potentiates the uptake at high concentrations
- mole fraction solubility (x) ([2]; 1-octanol, 293.15 K): 0.89 x · 10^4
- A, parameter of the correlation equation lnx=A-B/T ([2]; 1-octanol, 293.15–313.15 K): 3.95 ± 0.23
- B, parameter of the correlation equation lnx=A-B/T ([2]; 1-octanol, 293.15–313.15 K): 3889 ± 69
- mole fraction solubility (x) ([2]; 1-octanol, 298.15 K): 1.13 x · 10^4
- ΔGsol0, standard molar dissolution Gibbs energy ([2]; 1-octanol, 298.15 K): 22.5 kJ/mol
- ΔHsol0, standard molar dissolution enthalpy ([2]; 1-octanol, 298.15 K): 32.3 kJ/mol
- ΔSsol0, standard molar dissolution entropy ([2]; 1-octanol, 298.15 K): 32.9 J/mol⋅K
- mole fraction solubility (x) ([2]; 1-octanol, 303.15 K): 1.39 x · 10^4
- mole fraction solubility (x) ([2]; 1-octanol, 308.15 K): 1.68 x · 10^4
- mole fraction solubility (x) ([2]; 1-octanol, 313.15 K): 2.11 x · 10^4
- mole fraction solubility (x) ([2]; Buffer pH 7.4, 293.15 K): 1.64 x · 10^6
- A, parameter of the correlation equation lnx=A-B/T ([2]; Buffer pH 7.4, 293.15–313.15 K): −2.90 ± 0.22
- B, parameter of the correlation equation lnx=A-B/T ([2]; Buffer pH 7.4, 293.15–313.15 K): 3054 ± 67
- mole fraction solubility (x) ([2]; Buffer pH 7.4, 298.15 K): 1.96 x · 10^6
- ΔGsol0, standard molar dissolution Gibbs energy ([2]; Buffer pH 7.4, 298.15 K): 32.6 kJ/mol
- ΔHsol0, standard molar dissolution enthalpy ([2]; Buffer pH 7.4, 298.15 K): 25.4 kJ/mol
- ΔSsol0, standard molar dissolution entropy ([2]; Buffer pH 7.4, 298.15 K): -24.2 J/mol⋅K
- mole fraction solubility (x) ([2]; Buffer pH 7.4, 303.15 K): 2.27 x · 10^6
- mole fraction solubility (x) ([2]; Buffer pH 7.4, 308.15 K): 2.70 x · 10^6
- mole fraction solubility (x) ([2]; Buffer pH 7.4, 313.15 K): 3.21 x · 10^6
- mole fraction solubility (x) ([2]; Hexane, 293.15 K): 1.42 x · 10^5
- A, parameter of the correlation equation lnx=A-B/T ([2]; Hexane, 293.15–313.15 K): −1.39 ± 0.17
- B, parameter of the correlation equation lnx=A-B/T ([2]; Hexane, 293.15–313.15 K): 2989 ± 49
- mole fraction solubility (x) ([2]; Hexane, 298.15 K): 1.70 x · 10^5
- ΔGsol0, standard molar dissolution Gibbs energy ([2]; Hexane, 298.15 K): 27.2 kJ/mol
- ΔHsol0, standard molar dissolution enthalpy ([2]; Hexane, 298.15 K): 24.9 kJ/mol
- ΔSsol0, standard molar dissolution entropy ([2]; Hexane, 298.15 K): -7.7 J/mol⋅K
- mole fraction solubility (x) ([2]; Hexane, 303.15 K): 2.02 x · 10^5
- mole fraction solubility (x) ([2]; Hexane, 308.15 K): 2.35 x · 10^5
- mole fraction solubility (x) ([2]; Hexane, 313.15 K): 2.72 x · 10^5

SMILES: CN1CCc2c(c3cc(Cl)ccc3n2CCc2n[nH]c(=S)n2C)C1 [V, 5-[2-(8-Chloro-2-methyl-1,2,3,4-tetrahydropyrido[4,3-b]indol-5-yl)ethyl]-4-methyl-2,4-dihydro[1,2,4]triazole-3-thione]
- Percentage 45Ca2+ of Control (Control – 100%) ([1]; compound 0.01 μM): 103.5 ± 7.7%
- Percentage 45Ca2+ of Control (Control – 100%) ([1]; compound 0.1 μM): 95.3 ± 1.0%
- Percentage 45Ca2+ of Control (Control – 100%) ([1]; compound 0.5 μM): 102.2 ± 6.3%
- Percentage 45Ca2+ of Control (Control – 100%) ([1]; compound 1 μM): 94.5 ± 4.7%
- Percentage 45Ca2+ of Control (Control – 100%) ([1]; compound 5 μM): 80.7 ± 10.5%
- Percentage 45Ca2+ of Control (Control – 100%) ([1]; compound 10 μM): 75.6 ± 10.0%
- Percentage 45Ca2+ of Control (Control – 100%) ([1]; compound 50 μM): 93.3 ± 11.0%
- Percentage 45Ca2+ of Control (Control – 100%) ([1]; compound 100 μM): 135.5% and 135.5 ± 9.4%
- inhibition of glutamate-induced calcium ion uptake, most efficient ([1]; concentration of 5–10 μM): ~20%
- overall inhibiting activity on calcium ion uptake, in words [1]: weak inhibitors of calcium ion uptake
- mole fraction solubility (x) ([2]; 1-octanol, 293.15 K): 1.15 x · 10^4
- A, parameter of the correlation equation lnx=A-B/T ([2]; 1-octanol, 293.15–313.15 K): 6.03 ± 0.15
- B, parameter of the correlation equation lnx=A-B/T ([2]; 1-octanol, 293.15–313.15 K): 4423 ± 47
- mole fraction solubility (x) ([2]; 1-octanol, 298.15 K): 1.47 x · 10^4
- ΔGsol0, standard molar dissolution Gibbs energy ([2]; 1-octanol, 298.15 K): 21.9 kJ/mol
- ΔHsol0, standard molar dissolution enthalpy ([2]; 1-octanol, 298.15 K): 36.8 kJ/mol
- ΔSsol0, standard molar dissolution entropy ([2]; 1-octanol, 298.15 K): 50.0 J/mol⋅K
- mole fraction solubility (x) ([2]; 1-octanol, 303.15 K): 1.91 x · 10^4
- mole fraction solubility (x) ([2]; 1-octanol, 308.15 K): 2.42 x · 10^4
- mole fraction solubility (x) ([2]; 1-octanol, 313.15 K): 3.01 x · 10^4
- mole fraction solubility (x) ([2]; Buffer pH 7.4, 293.15 K): 2.66 x · 10^6
- A, parameter of the correlation equation lnx=A-B/T ([2]; Buffer pH 7.4, 293.15–313.15 K): 0.12 ± 0.16
- B, parameter of the correlation equation lnx=A-B/T ([2]; Buffer pH 7.4, 293.15–313.15 K): 3799 ± 50
- mole fraction solubility (x) ([2]; Buffer pH 7.4, 298.15 K): 3.25 x · 10^6
- ΔGsol0, standard molar dissolution Gibbs energy ([2]; Buffer pH 7.4, 298.15 K): 30.7 kJ/mol
- ΔHsol0, standard molar dissolution enthalpy ([2]; Buffer pH 7.4, 298.15 K): 31.6 kJ/mol
- ΔSsol0, standard molar dissolution entropy ([2]; Buffer pH 7.4, 298.15 K): 2.9 J/mol⋅K
- mole fraction solubility (x) ([2]; Buffer pH 7.4, 303.15 K): 4.01 x · 10^6
- mole fraction solubility (x) ([2]; Buffer pH 7.4, 308.15 K): 4.95 x · 10^6
- mole fraction solubility (x) ([2]; Buffer pH 7.4, 313.15 K): 6.07 x · 10^6
- mole fraction solubility (x) ([2]; Hexane, 293.15 K): 5.42 x · 10^4
- A, parameter of the correlation equation lnx=A-B/T ([2]; Hexane, 293.15–313.15 K): 2.45 ± 0.12
- B, parameter of the correlation equation lnx=A-B/T ([2]; Hexane, 293.15–313.15 K): 2922 ± 38
- mole fraction solubility (x) ([2]; Hexane, 298.15 K): 6.39 x · 10^4
- ΔGsol0, standard molar dissolution Gibbs energy ([2]; Hexane, 298.15 K): 18.2 kJ/mol
- ΔHsol0, standard molar dissolution enthalpy ([2]; Hexane, 298.15 K): 24.3 kJ/mol
- ΔSsol0, standard molar dissolution entropy ([2]; Hexane, 298.15 K): 13.1 J/mol⋅K
- mole fraction solubility (x) ([2]; Hexane, 303.15 K): 7.47 x · 10^4
- mole fraction solubility (x) ([2]; Hexane, 308.15 K): 8.87 x · 10^4
- mole fraction solubility (x) ([2]; Hexane, 313.15 K): 10.22 x · 10^4

Reference: publication PMC6128713 (Saudi Pharmaceutical Journal : SPJ, 2018)
